# Active and inactive are the calls of the source. How the calls were made is not given here.
# Test system: Galpha16-expressing cells, calcium fluorescence, counterscreen
# Test: nonselective Ga16 antagonists, potency, late-stage follow-up, counter-screen for TAAR1 antagonist project, cell-based, fluorescence, dose response (AID 743237)
row,Compound,IC50
1,O=C(NCCn1cc(SCc2ccccc2F)c2ccccc21)c1c(F)cccc1F,> 29.9 µM (inactive)
2,Cc1cccc(C(C#N)c2nc3ccccc3nc2C(F)(F)F)c1 (centres undefined),> 29.9 µM (inactive)
3,CC(=O)c1ccc(NC(=O)c2ccc(COc3ccccc3[N+](=O)[O-])o2)cc1,> 29.9 µM (inactive)
4,COc1cccc(-c2nn(-c3ccccc3)cc2C(=O)Nc2nccs2)c1,> 29.9 µM (inactive)
5,CCCCC(=O)Nc1ccc(C(=O)Nc2ccc(S(=O)(=O)N3CCCC3)cc2)cc1,> 29.9 µM (inactive)
6,CCOC(=O)C1CCCN(c2c(C(=O)c3ccccc3)cnc3ccc(OC)cc23)C1 (centres undefined),> 29.9 µM (inactive)
7,Cc1coc(NC(=O)CSc2nc(-c3ccc(Cl)cc3)cc(C(F)(F)F)c2C#N)n1,> 29.9 µM (inactive)
8,COc1cc(NC(=O)c2cc3ccccc3o2)c(OC)cc1Cl,> 29.9 µM (inactive)
9,Cc1ccc(CSCC(=O)Nc2cc(S(=O)(=O)N3CCOCC3)ccc2OCC(F)(F)F)cc1,> 29.9 µM (inactive)
